Activity calls are given as the source filed them. How the calls were made is not given here.
System: CCRIS mutagenicity, Ames/micronucleus/aberration tests
Experiment: CCRIS mutagenicity studies
[1] = Test System: AMES SALMONELLA TYPHIMURIUM, Strain/Indicator: TA98, Metabolic Activation: NONE, Method: STANDARD PLATE
[2] = Test System: AMES SALMONELLA TYPHIMURIUM, Strain/Indicator: TA98, Metabolic Activation: RAT, LIVER, S-9, AROCLOR 1254, Method: STANDARD PLATE
[3] = Test System: AMES SALMONELLA TYPHIMURIUM, Strain/Indicator: TA100, Metabolic Activation: NONE, Method: STANDARD PLATE
[4] = Test System: AMES SALMONELLA TYPHIMURIUM, Strain/Indicator: TA100, Metabolic Activation: RAT, LIVER, S-9, AROCLOR 1254, Method: STANDARD PLATE
[5] = Test System: AMES SALMONELLA TYPHIMURIUM, Strain/Indicator: TA1535, Metabolic Activation: NONE, Method: STANDARD PLATE
[6] = Test System: AMES SALMONELLA TYPHIMURIUM, Strain/Indicator: TA100, Metabolic Activation: RAT, LIVER, S-9, KC500 OR PHENOBARBITAL, Method: LIQUID SUSPENSION
[7] = Test System: AMES SALMONELLA TYPHIMURIUM, Strain/Indicator: TA1535, Metabolic Activation: NONE, Method: PREINCUBATION
[8] = Test System: AMES SALMONELLA TYPHIMURIUM, Strain/Indicator: TA98, Metabolic Activation: NONE, Method: PREINCUBATION
[9] = Test System: AMES SALMONELLA TYPHIMURIUM, Strain/Indicator: TA100, Metabolic Activation: NONE, Method: PREINCUBATION

O=C(c1ccc([N+](=O)[O-])cc1)n1ncc(Cl)c(Cl)c1=O
mutagenic call [1]: inactive; negative | mutagenic call [2]: inactive; negative | mutagenic call [3]: active; positive | mutagenic call [4]: active; positive | mutagenic call [5]: active; positive | mutagenic call (Test System: AMES SALMONELLA TYPHIMURIUM, Strain/Indicator: TA1535, Metabolic Activation: RAT, LIVER, S-9, AROCLOR 1254, Method: STANDARD PLATE): active; positive | mutagenic call (Test System: AMES SALMONELLA TYPHIMURIUM, Strain/Indicator: TA1537, Metabolic Activation: NONE, Method: STANDARD PLATE): inactive; negative | mutagenic call (Test System: AMES SALMONELLA TYPHIMURIUM, Strain/Indicator: TA1537, Metabolic Activation: RAT, LIVER, S-9, AROCLOR 1254, Method: STANDARD PLATE): inactive; negative

O=[N+]([O-])c1ccc(-c2nc(NCCO)c3ccccc3n2)s1
mutagenic call [1]: active; positive | mutagenic call [3]: active; positive

CN=[N+](C)[O-]
mutagenic call [6]: active; positive | mutagenic call (Test System: AMES SALMONELLA TYPHIMURIUM, Strain/Indicator: TA1535, Metabolic Activation: HAMSTER, LIVER, S-9, AROCLOR 1254, Method: PREINCUBATION): inactive; negative | mutagenic call [7]: inactive; negative | mutagenic call [5]: inactive; negative | mutagenic call (Test System: AMES SALMONELLA TYPHIMURIUM, Strain/Indicator: TA1535, Metabolic Activation: RAT, LIVER, S-9, AROCLOR 1254, Method: PREINCUBATION): inactive; negative | mutagenic call (Test System: AMES SALMONELLA TYPHIMURIUM, Strain/Indicator: TA1535, Metabolic Activation: RAT, LIVER, S-9, KC500 OR PHENOBARBITAL, Method: LIQUID SUSPENSION): active; positive | mutagenic call (Test System: AMES SALMONELLA TYPHIMURIUM, Strain/Indicator: YG7108, Metabolic Activation: NONE, Method: STANDARD PLATE): active; positive | mutagenic call (Test System: E. COLI, Strain/Indicator: WP2 UVRA, Metabolic Activation: HAMSTER, LIVER, S-9, AROCLOR 1254, Method: PREINCUBATION): inactive; negative | mutagenic call (Test System: E. COLI, Strain/Indicator: WP2 UVRA, Metabolic Activation: HAMSTER, LIVER, S-9, Method: PREINCUBATION): inactive; negative | mutagenic call (Test System: E. COLI, Strain/Indicator: WP2 UVRA, Metabolic Activation: MOUSE, LIVER, S-9, AROCLOR 1254, Method: PREINCUBATION): inactive; negative | mutagenic call (Test System: E. COLI, Strain/Indicator: WP2 UVRA, Metabolic Activation: MOUSE, LIVER, S-9, Method: PREINCUBATION): inactive; negative | mutagenic call (Test System: E. COLI, Strain/Indicator: WP2 UVRA, Metabolic Activation: NONE, Method: PREINCUBATION): inactive; negative | mutagenic call (Test System: E. COLI, Strain/Indicator: WP2 UVRA, Metabolic Activation: RAT, LIVER, S-9, AROCLOR 1254, Method: PREINCUBATION): inactive; negative | mutagenic call (Test System: E. COLI, Strain/Indicator: WP2 UVRA, Metabolic Activation: RAT, LIVER, S-9, Method: PREINCUBATION): inactive; negative

Oc1ccc2ccccc2c1N=Nc1ccccc1
mutagenic call (End Point: IN VITRO CHROMOSOMAL ABERRATIONS, Test System: CHO CELLS, Metabolic Activation: NONE): inactive; negative | mutagenic call (End Point: IN VITRO CHROMOSOMAL ABERRATIONS, Test System: CHO CELLS, Metabolic Activation: RAT, LIVER, S-9, AROCLOR 1254): inactive; negative | mutagenic call (Test System: AMES SALMONELLA TYPHIMURIUM, Strain/Indicator: TA97, Metabolic Activation: HAMSTER, LIVER, S-9, AROCLOR 1254 (10%), Method: PREINCUBATION): inactive; negative | mutagenic call (Test System: AMES SALMONELLA TYPHIMURIUM, Strain/Indicator: TA97, Metabolic Activation: NONE, Method: PREINCUBATION): inactive; negative | mutagenic call (Test System: AMES SALMONELLA TYPHIMURIUM, Strain/Indicator: TA97, Metabolic Activation: RAT, LIVER, S-9, AROCLOR 1254 (10%), Method: PREINCUBATION): active; positive | mutagenic call (Test System: AMES SALMONELLA TYPHIMURIUM, Strain/Indicator: TA98, Metabolic Activation: HAMSTER, LIVER, S-9, AROCLOR 1254 (10%), Method: PREINCUBATION): inactive; negative | mutagenic call [8]: inactive; negative | mutagenic call (Test System: AMES SALMONELLA TYPHIMURIUM, Strain/Indicator: TA98, Metabolic Activation: RAT, BLADDER, S-9, PCB, Method: FLUCTUATION TEST): inactive; negative | mutagenic call (Test System: AMES SALMONELLA TYPHIMURIUM, Strain/Indicator: TA98, Metabolic Activation: RAT, LIVER, S-9, AROCLOR 1254 (10%), Method: PREINCUBATION): active; positive | mutagenic call (Test System: AMES SALMONELLA TYPHIMURIUM, Strain/Indicator: TA100, Metabolic Activation: HAMSTER, LIVER, S-9, AROCLOR 1254 (10%), Method: PREINCUBATION): inactive; negative | mutagenic call [9]: inactive; negative | mutagenic call (Test System: AMES SALMONELLA TYPHIMURIUM, Strain/Indicator: TA100, Metabolic Activation: RAT, BLADDER, S-9, PCB, Method: FLUCTUATION TEST): inactive; negative | mutagenic call (Test System: AMES SALMONELLA TYPHIMURIUM, Strain/Indicator: TA100, Metabolic Activation: RAT, LIVER, S-9, AROCLOR 1254 (10%), Method: PREINCUBATION): inactive; negative | mutagenic call (Test System: AMES SALMONELLA TYPHIMURIUM, Strain/Indicator: TA1535, Metabolic Activation: HAMSTER, LIVER, S-9, AROCLOR 1254 (10%), Method: PREINCUBATION): inactive; negative | mutagenic call [7]: inactive; negative | mutagenic call (Test System: AMES SALMONELLA TYPHIMURIUM, Strain/Indicator: TA1535, Metabolic Activation: RAT, LIVER, S-9, AROCLOR 1254 (10%), Method: PREINCUBATION): inactive; negative | mutagenic call (Test System: AMES SALMONELLA TYPHIMURIUM, Strain/Indicator: TA1538, Metabolic Activation: HAMSTER, LIVER, S-9, AROCLOR 1254, Method: STANDARD PLATE): active; positive

Nc1ccc(N=Nc2ccccc2)cc1
mutagenic call (Test System: AMES SALMONELLA TYPHIMURIUM, Strain/Indicator: TA98, Metabolic Activation: HAMSTER, LIVER, S-9, AROCLOR 1254 (30%), Method: PREINCUBATION): active; positive | mutagenic call [8]: inactive; negative | mutagenic call [1]: inactive; negative | mutagenic call (Test System: AMES SALMONELLA TYPHIMURIUM, Strain/Indicator: TA98, Metabolic Activation: RAT, LIVER, MICROSOMES, 4-AMINOAZOBENZENE, Method: PREINCUBATION): inactive; negative | mutagenic call (Test System: AMES SALMONELLA TYPHIMURIUM, Strain/Indicator: TA98, Metabolic Activation: RAT, LIVER, MICROSOMES, AROCLOR 1254, Method: PREINCUBATION): inactive; negative | mutagenic call (Test System: AMES SALMONELLA TYPHIMURIUM, Strain/Indicator: TA98, Metabolic Activation: RAT, LIVER, MICROSOMES, Method: PREINCUBATION): inactive; negative | mutagenic call (Test System: AMES SALMONELLA TYPHIMURIUM, Strain/Indicator: TA98, Metabolic Activation: RAT, LIVER, S-9, AROCLOR 1254 (30%), Method: PREINCUBATION): active; positive | mutagenic call [2]: active; positive | mutagenic call (Test System: AMES SALMONELLA TYPHIMURIUM, Strain/Indicator: TA98, Metabolic Activation: RAT, LIVER, S-9, KC500 OR PHENOBARBITAL, Method: LIQUID SUSPENSION): active; positive | mutagenic call (Test System: AMES SALMONELLA TYPHIMURIUM, Strain/Indicator: TA98, Metabolic Activation: RAT, LIVER, S-9, PCB, Method: PREINCUBATION): active; positive | mutagenic call (Test System: AMES SALMONELLA TYPHIMURIUM, Strain/Indicator: TA100, Metabolic Activation: HAMSTER, LIVER, S-9, AROCLOR 1254 (30%), Method: PREINCUBATION): active; positive | mutagenic call [9]: inactive; negative | mutagenic call [3]: inactive; negative | mutagenic call (Test System: AMES SALMONELLA TYPHIMURIUM, Strain/Indicator: TA100, Metabolic Activation: RAT, LIVER, S-9, AROCLOR 1254 (30%), Method: PREINCUBATION): inactive; negative | mutagenic call [4]: active; positive | mutagenic call [6]: active; positive | mutagenic call (Test System: AMES SALMONELLA TYPHIMURIUM, Strain/Indicator: TA100, Metabolic Activation: RAT, LIVER, S-9, PCB, Method: PREINCUBATION): active; positive | mutagenic call (Test System: AMES SALMONELLA TYPHIMURIUM, Strain/Indicator: TA1538, Metabolic Activation: RAT, LIVER, S-9, AROCLOR 1254, Method: STANDARD PLATE): active; positive | mutagenic call (Test System: UDS RODENT HEPATOCYTES, Strain/Indicator: THY INCORP (NON-S-PHASE), Method: AUTORADIOGRAPHY): active; positive

From PubChem BioAssay AID1259407 (Chemical Carcinogenesis Research Information System (CCRIS), 2018)
